Experimental findings from US20240218022A1, “ANTI-VISTA MACROCYCLIC PEPTIDES AND COMPOSITIONS” (BRISTOL-MYERS SQUIBB COMPANY, priority 2022, published 2024) are described below.

For the experiment, the target named is T1, mouse VISTA (mVISTA) (Mus musculus, UniProt Q9D659).
T1 construct: expressed in transfected cells; host or cells: Human embryonic kidney 293T cells
T1 sequence (Q9D659 33-308): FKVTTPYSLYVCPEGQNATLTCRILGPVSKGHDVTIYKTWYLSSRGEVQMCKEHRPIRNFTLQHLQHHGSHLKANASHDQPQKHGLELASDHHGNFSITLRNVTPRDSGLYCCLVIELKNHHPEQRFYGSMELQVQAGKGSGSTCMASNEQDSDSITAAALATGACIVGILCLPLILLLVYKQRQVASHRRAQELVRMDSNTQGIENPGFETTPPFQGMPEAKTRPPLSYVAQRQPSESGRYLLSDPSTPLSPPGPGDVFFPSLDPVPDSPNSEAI
In words: Cell-Based Binding High-Content Assay For mVISTA (HC CBA mVISTA). The conditions noted are these: 293T cells expressing mouse VISTA; competition with biotinylated peptide (2 nM); read-out: HC CBA mVISTA IC50. An outline of the steps:
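293T cells expressing mouse VISTA, with compounds added either after seeding ("no wash") or before seeding and then washed out after 1 h. Biotinylated peptide 2 nM for 30 min at room temperature, then detection with Alexa 647–streptavidin. After fixation with Hoechst stain, plates were high-content imaged; IC50 from four-parameter logistic fit.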

Structures are written as SMILES. Positions of bridges follow the written chain, without caps; N, C: chain ends. Non-standard residues stand in square brackets, D forms with d. Residues, ends and D or L forms follow the SMILES beside them. ξ: configuration not given here. Ile(3ξ) = CCC(C)[C@H](N)C(=O)O; Ahp(2) = CCCCC[C@H](N)C(=O)O; NHexGly = CCCCCCNCC(=O)O; Nle = CCCC[C@H](N)C(=O)O; Orn = NCCC[C@H](N)C(=O)O; Nva = CCC[C@H](N)C(=O)O; Abu = CC[C@H](N)C(=O)O

By IC50 is commonly meant the midpoint of a concentration-inhibition curve. For the compound `CCCCCCN1CC(=O)N[C@@H](Cc2ccc(O)cc2)C(=O)N[C@@H](CCCC)C(=O)N[C@@H](CC(=O)O)C(=O)N[C@@H](CCCN)C(=O)N[C@@H](CC(C)C)C(=O)N[C@@H](CCCCC)C(=O)N2CCC[C@H]2C(=O)N[C@@H](C(C)C)C(=O)N[C@@H](CO)C(=O)N[C@H](C(=O)NCC(N)=O)CSCC(=O)N[C@@H](Cc2ccccc2)C(=O)N[C@@H](Cc2ccc(O)cc2)C(=O)N[C@@H](CC(=O)O)C1=O` [Example 1048] ({CH2CO}-FYD[NHexGly]Y[Nle]D[Orn]L[Ahp(2)]PVSCG-NH2; thioether N-14), the half-maximal inhibitory concentration (IC50) was 22.4 nM.

Turning to `CCCCCCN1CC(=O)N[C@@H](Cc2ccc(O)cc2)C(=O)N[C@@H](CC(C)C)C(=O)NCC(=O)N[C@@H](CCCNC(=N)N)C(=O)N[C@@H](CC(C)C)C(=O)N[C@@H](CCCCC)C(=O)N2CCC[C@H]2C(=O)N[C@@H](C(C)C)C(=O)N[C@@H](CO)C(=O)N[C@H](C(=O)NCC(N)=O)CSCC(=O)N[C@@H](Cc2ccccc2)C(=O)N[C@@H](Cc2ccc(O)cc2)C(=O)N[C@@H](CC(=O)O)C1=O` [Example 1049] ({CH2CO}-FYD[NHexGly]YLGRL[Ahp(2)]PVSCG-NH2; thioether N-14), the IC50 turned out to be 9.5 nM.

As for `CCCCCCN1CC(=O)N[C@@H](Cc2ccc(O)cc2)C(=O)N[C@@H](CCCC)C(=O)NCC(=O)N[C@@H](CCCNC(=N)N)C(=O)N[C@@H](CC(C)C)C(=O)N[C@@H](CCCCC)C(=O)N2CCC[C@H]2C(=O)N[C@@H](C(C)C)C(=O)N[C@@H](CO)C(=O)N[C@H](C(=O)NCC(N)=O)CSCC(=O)N[C@@H](Cc2ccccc2)C(=O)N[C@@H](Cc2ccc(O)cc2)C(=O)N[C@@H](CC(=O)O)C1=O` [Example 1050] ({CH2CO}-FYD[NHexGly]Y[Nle]GRL[Ahp(2)]PVSCG-NH2; thioether N-14), the half-inhibitory concentration (IC50) is 29.9 nM.

Turning to `CCCCCCN1CC(=O)N[C@@H](Cc2ccc(O)cc2)C(=O)N[C@@H](CCCCN)C(=O)N[C@@H](CC(=O)O)C(=O)N[C@@H](CCCN)C(=O)N[C@@H](CC(C)C)C(=O)N[C@@H](CCCCC)C(=O)N2CCC[C@H]2C(=O)N[C@@H](C(C)C)C(=O)N[C@@H](CO)C(=O)N[C@H](C(=O)NCC(=O)O)CSCC(=O)N[C@@H](Cc2ccccc2)C(=O)N[C@@H](Cc2ccc(O)cc2)C(=O)N[C@@H](CC(=O)O)C1=O` [Example 1051] ({CH2CO}-FYD[NHexGly]YKD[Orn]L[Ahp(2)]PVSCG-OH; thioether N-14), the IC50 was determined as 11.5 nM.

As for `CCCCCCN1CC(=O)N[C@@H](Cc2ccc(O)cc2)C(=O)N[C@@H](CCCCN)C(=O)N[C@@H](CC(=O)O)C(=O)N[C@@H](CCCNC(=N)N)C(=O)N[C@@H](CC(C)C)C(=O)N[C@@H](CCCCC)C(=O)N2CCC[C@H]2C(=O)N[C@@H](C(C)C)C(=O)N[C@@H](CO)C(=O)N[C@H](C(=O)NCC(=O)O)CSCC(=O)N[C@@H](Cc2ccccc2)C(=O)N[C@@H](Cc2ccc(O)cc2)C(=O)N[C@@H](CC(=O)O)C1=O` [Example 1052] ({CH2CO}-FYD[NHexGly]YKDRL[Ahp(2)]PVSCG-OH; thioether N-14), the IC50 is 27.1 nM.

As for `CCCCCCN1CC(=O)N[C@@H](Cc2ccc(O)cc2)C(=O)N[C@@H](CCCCN)C(=O)NCC(=O)N[C@@H](CCCNC(=N)N)C(=O)N[C@@H](CC(C)C)C(=O)N[C@@H](CCCCC)C(=O)N2CCC[C@H]2C(=O)N[C@@H](C(C)C)C(=O)N[C@@H](CO)C(=O)N[C@H](C(=O)NCC(=O)O)CSCC(=O)N[C@@H](Cc2ccccc2)C(=O)N[C@@H](Cc2ccc(O)cc2)C(=O)N[C@@H](CC(=O)O)C1=O` [Example 1053] ({CH2CO}-FYD[NHexGly]YKGRL[Ahp(2)]PVSCG-OH; thioether N-14), the IC50 was found to be 20.7 nM.

For the compound `CCCCCCN1CC(=O)N[C@@H](Cc2ccc(O)cc2)C(=O)N[C@@H](C(C)C)C(=O)NCC(=O)N[C@@H](CCCNC(=N)N)C(=O)N[C@@H](CC(C)C)C(=O)N[C@@H](CCCCC)C(=O)N2CCC[C@H]2C(=O)N[C@@H](C(C)C)C(=O)N[C@@H](CO)C(=O)N[C@H](C(=O)NCC(N)=O)CSCC(=O)N[C@@H](Cc2ccccc2)C(=O)N[C@@H](Cc2ccc(O)cc2)C(=O)N[C@@H](CC(=O)O)C1=O` [Example 1054] ({CH2CO}-FYD[NHexGly]YVGRL[Ahp(2)]PVSCG-NH2; thioether N-14), the concentration for half-maximal inhibition (IC50) came out at 29.7 nM.

Turning to `CCCCCCN1CC(=O)N[C@@H](Cc2ccc(O)cc2)C(=O)N[C@@H](C(C)CC)C(=O)NCC(=O)N[C@@H](CCCNC(=N)N)C(=O)N[C@@H](CC(C)C)C(=O)N[C@@H](CCCCC)C(=O)N2CCC[C@H]2C(=O)N[C@@H](C(C)C)C(=O)N[C@@H](CO)C(=O)N[C@H](C(=O)NCC(N)=O)CSCC(=O)N[C@@H](Cc2ccccc2)C(=O)N[C@@H](Cc2ccc(O)cc2)C(=O)N[C@@H](CC(=O)O)C1=O` (stereo partly shown) [Example 1055] ({CH2CO}-FYD[NHexGly]Y[Ile(3ξ)]GRL[Ahp(2)]PVSCG-NH2; thioether N-14), the half-inhibitory concentration (IC50) amounted to 36.9 nM.

Consider `CCCCCCN1CC(=O)N[C@@H](Cc2ccc(O)cc2)C(=O)N[C@@H](CCCCC)C(=O)N[C@@H](CCCCN)C(=O)N[C@@H](CCCNC(=N)N)C(=O)N[C@@H](CC(C)C)C(=O)N[C@@H](CCCCC)C(=O)N2CCC[C@H]2C(=O)N[C@@H](C(C)C)C(=O)N[C@@H](CO)C(=O)N[C@H](C(=O)NCC(N)=O)CSCC(=O)N[C@@H](Cc2ccccc2)C(=O)N[C@@H](Cc2ccc(O)cc2)C(=O)N[C@@H](CC(=O)O)C1=O` [Example 1056] ({CH2CO}-FYD[NHexGly]Y[Ahp(2)]KRL[Ahp(2)]PVSCG-NH2; thioether N-14), for which the concentration for half-maximal inhibition (IC50) turned out to be 17.1 nM.

With `CCCCCCN1CC(=O)N[C@@H](Cc2ccc(O)cc2)C(=O)N[C@@H](CCCCC)C(=O)N[C@@H](CCC(=O)O)C(=O)N[C@@H](CCCNC(=N)N)C(=O)N[C@@H](CC(C)C)C(=O)N[C@@H](CCCCC)C(=O)N2CCC[C@H]2C(=O)N[C@@H](C(C)C)C(=O)N[C@@H](CO)C(=O)N[C@H](C(=O)NCC(N)=O)CSCC(=O)N[C@@H](Cc2ccccc2)C(=O)N[C@@H](Cc2ccc(O)cc2)C(=O)N[C@@H](CC(=O)O)C1=O` [Example 1057] ({CH2CO}-FYD[NHexGly]Y[Ahp(2)]ERL[Ahp(2)]PVSCG-NH2; thioether N-14), the IC50 stood at 35.1 nM.

Consider `CCCCCCN1CC(=O)N[C@@H](Cc2ccc(O)cc2)C(=O)N[C@@H](CCCCN)C(=O)N[C@@H](CC(N)=O)C(=O)N[C@@H](CCCNC(=N)N)C(=O)N[C@@H](CC(C)C)C(=O)N[C@@H](CCCCC)C(=O)N2CCC[C@H]2C(=O)N[C@@H](C(C)C)C(=O)N[C@@H](CO)C(=O)N[C@H](C(=O)NCC(=O)O)CSCC(=O)N[C@@H](Cc2ccccc2)C(=O)N[C@@H](Cc2ccc(O)cc2)C(=O)N[C@@H](CC(=O)O)C1=O` [Example 1058] ({CH2CO}-FYD[NHexGly]YKNRL[Ahp(2)]PVSCG-OH; thioether N-14), for which the IC50 was 38.7 nM.

Turning to `CCCCCCN1CC(=O)N[C@@H](Cc2ccc(O)cc2)C(=O)N[C@@H](C(C)CC)C(=O)NCC(=O)N[C@@H](CCCNC(=N)N)C(=O)N[C@@H](CC(C)C)C(=O)N[C@@H](CCCCC)C(=O)N2CCC[C@H]2C(=O)N[C@@H](C(C)C)C(=O)N[C@@H](CO)C(=O)N[C@H](C(=O)NCC(=O)O)CSCC(=O)N[C@@H](Cc2ccccc2)C(=O)N[C@@H](Cc2ccc(O)cc2)C(=O)N[C@@H](CC(=O)O)C1=O` (stereo partly shown) [Example 1059] ({CH2CO}-FYD[NHexGly]Y[Ile(3ξ)]GRL[Ahp(2)]PVSCG-OH; thioether N-14), the concentration for half-maximal inhibition (IC50) was 30 nM.

On to `CCCCCCN1CC(=O)N[C@@H](Cc2ccc(O)cc2)C(=O)N[C@@H](CCC)C(=O)NCC(=O)N[C@@H](CCCNC(=N)N)C(=O)N[C@@H](CC(C)C)C(=O)N[C@@H](CCCCC)C(=O)N2CCC[C@H]2C(=O)N[C@@H](C(C)C)C(=O)N[C@@H](CO)C(=O)N[C@H](C(=O)NCC(N)=O)CSCC(=O)N[C@@H](Cc2ccccc2)C(=O)N[C@@H](Cc2ccc(O)cc2)C(=O)N[C@@H](CC(=O)O)C1=O` [Example 1060] ({CH2CO}-FYD[NHexGly]Y[Nva]GRL[Ahp(2)]PVSCG-NH2; thioether N-14), for which the IC50 stood at 29.9 nM.

Turning to `CCCCCCN1CC(=O)N[C@@H](Cc2ccc(O)cc2)C(=O)N[C@@H](CCC)C(=O)NCC(=O)N[C@@H](CCCNC(=N)N)C(=O)N[C@@H](CC(C)C)C(=O)N[C@@H](CCCCC)C(=O)N2CCC[C@H]2C(=O)N[C@@H](C(C)C)C(=O)N[C@@H](CO)C(=O)N[C@H](C(=O)NCC(=O)O)CSCC(=O)N[C@@H](Cc2ccccc2)C(=O)N[C@@H](Cc2ccc(O)cc2)C(=O)N[C@@H](CC(=O)O)C1=O` [Example 1061] ({CH2CO}-FYD[NHexGly]Y[Nva]GRL[Ahp(2)]PVSCG-OH; thioether N-14), the 50% inhibitory concentration (IC50) worked out at 46.3 nM.

As to `CCCCCCN1CC(=O)N[C@@H](Cc2ccc(O)cc2)C(=O)N[C@@H](CC)C(=O)NCC(=O)N[C@@H](CCCNC(=N)N)C(=O)N[C@@H](CC(C)C)C(=O)N[C@@H](CCCCC)C(=O)N2CCC[C@H]2C(=O)N[C@@H](C(C)C)C(=O)N[C@@H](CO)C(=O)N[C@H](C(=O)NCC(=O)O)CSCC(=O)N[C@@H](Cc2ccccc2)C(=O)N[C@@H](Cc2ccc(O)cc2)C(=O)N[C@@H](CC(=O)O)C1=O` [Example 1062] ({CH2CO}-FYD[NHexGly]Y[Abu]GRL[Ahp(2)]PVSCG-OH; thioether N-14), the IC50 was 15.2 nM.

Consider `CCCCCCN1CC(=O)N[C@@H](Cc2ccc(O)cc2)C(=O)N[C@@H](C(C)C)C(=O)NCC(=O)N[C@@H](CCCNC(=N)N)C(=O)N[C@@H](CC(C)C)C(=O)N[C@@H](CCCCC)C(=O)N2CCC[C@H]2C(=O)N[C@@H](C(C)C)C(=O)N[C@@H](CO)C(=O)N[C@H](C(=O)NCC(=O)O)CSCC(=O)N[C@@H](Cc2ccccc2)C(=O)N[C@@H](Cc2ccc(O)cc2)C(=O)N[C@@H](CC(=O)O)C1=O` [Example 1063] ({CH2CO}-FYD[NHexGly]YVGRL[Ahp(2)]PVSCG-OH; thioether N-14), for which the IC50 stood at 28.6 nM.
